The results in this text go back to US9232799B2, “N-[(het)arylethyl)] pyrazole(thio)carboxamides and their heterosubstituted analogues” (BAYER INTELLECTUAL PROPERTY GMBH, priority 2010, dated 2016).

Data set [1] is described as follows: logP by HPLC on reversed-phase column (C 18), EEC Directive 79/831 Annex V.A8. It is filed as physicochemical. As to the method:
In table 1, the logP values were determined in accordance with EEC Directive 79/831 Annex V.A8 by HPLC (High Performance Liquid Chromatography) on a reversed-phase column (C 18), using the method described below: Temperature: 40° C.; […]

The subject of another data set is Sphaerotheca fuliginea. Nature of the data set: In vivo preventive test on Sphaerotheca fuliginea (cucumber). Conditions: 500 ppm of active ingredient, evaluated 7 days after inoculation. The text has this: One day after this treatment, the plants are inoculated with an aqueous spore suspension of Sphaerotheca fuliginea.
The subject of another data set is Alternaria solani. Nature of the data set: In vivo preventive test on Alternaria solani (tomato). The settings on record: 500 ppm of active ingredient, evaluated 7 days after inoculation. The text has this:
One day after this treatment, the plants are inoculated with an aqueous spore suspension of Alternaria solani.

In another data set the test system is Pyrenophora teres. Nature of the data set: In vivo preventive test on Pyrenophora teres (barley). Conditions: 500 ppm of active ingredient, evaluated 7-9 days after inoculation. The text has this:
One day after this treatment, the plants are inoculated with an aqueous spore suspension of Pyrenophora teres.

In a further data set the test system is Septoria tritici. Nature of the data set: In vivo preventive test on Septoria tritici (wheat). The settings on record: 500 ppm of active ingredient, evaluated 21 days after inoculation. The text has this: (§1) To test for preventive activity, young plants are sprayed with the preparation of active compound or active compound combination at the stated rate of application.

The test system of data set [2] is Blumeria graminis f.sp. hordei. Nature of the data set: In vivo preventive test on Blumeria graminis (barley). The settings on record: 500 ppm of active ingredient, evaluated 7 days after inoculation.
Excerpt: as §1

In data set [3] the test system is Fusarium nivale (var. majus). Put plainly: In vivo preventive test on Fusarium nivale (wheat). Conditions: 500 ppm of active ingredient, evaluated 5 days after inoculation.
Excerpt: as §1

The test system of another data set is Puccinia triticina. Put plainly: In vivo preventive test on Puccinia triticina (wheat). The settings on record: dose 500 ppm of active ingredient, evaluated 8 days after inoculation.
A further data set relates to aflatoxines production. Nature of the data set: microbe, parasite or virus in culture. It counts as cell-based, Aspergillus parasiticus.
The test system of a further data set is Fusarium graminearum. Put plainly: microbe, parasite or virus in culture. It is filed as cell-based.
For another data set, the system named is Venturia inaequalis. Put plainly: In vivo preventive test on Venturia inaequalis (apple scab). The settings on record: 100 ppm of active ingredient, evaluated 10 days after inoculation.
A further data set concerns Uromyces appendiculatus. Nature of the data set: In vivo preventive test on Uromyces appendiculatus (beans). The settings on record: 100 ppm of active ingredient, evaluated 10 days after inoculation.
Another data set relates to Leptosphaeria nodorum. Nature of the data set: In vivo preventive test on Leptosphaeria nodorum (wheat). Conditions: 500 ppm of active ingredient, evaluated 7-9 days after inoculation. The text has this:
One day after this treatment, the plants are inoculated with an aqueous spore suspension of Leptosphaeria nodorum.

A further data set deals with Botrytis cinerea. Put plainly: In vivo preventive test on Botrytis cinerea (beans). The settings on record: preventive, beans, lesion size 2 days after inoculation. The text has this:
To test for preventive activity, young plants are sprayed with the preparation of active compound. After the spray coating has dried on, 2 small pieces of agar covered with growth of Botrytis cinerea are placed on each leaf.

Structures are written as SMILES.

Usually logP stands for the decadic logarithm of the partition coefficient of the neutral form, usually between octanol and water. A high value points to a more lipophilic compound. On to `CC(Cc1ncc(C(F)(F)F)cc1Cl)N(C(=O)c1c(C(F)F)nn(C)c1Cl)C1CC1` (stereo not drawn) [Example 189], for which, in data set [1], the logP worked out at 3.96. Moreover, the Efficacy in the data set with Sphaerotheca fuliginea came to 95%; with Alternaria solani it was 100%; in the data set on Pyrenophora teres, 95%; in the data set with Septoria tritici, 70%; in data set [2] it was 100%; in data set [3] it was 100%. Also, the Efficacy with Puccinia triticina is given as 80%. The “% Inhibition of Aflatoxin at 50 μM” value in the data set on aflatoxines production worked out at 100%. Also, the “% Inhibition of fungal growth at 50 μM” value in the data set on Fusarium graminearum is on record as 90%.

As for `Cn1nc(C(F)F)c(C(=O)NCCc2ccc(Cl)cc2Cl)c1F` [Example 65], the logP in data set [1] was 3.09. Besides, the Efficacy in the data set with Sphaerotheca fuliginea was 79%; with Alternaria solani it was 90%; in the data set on Pyrenophora teres it was 100%; in the data set with Venturia inaequalis, 100%; with Septoria tritici, 100%; in [2] it was 95%. Besides, in the data set with Uromyces appendiculatus, the Efficacy came to 100%. For the same molecule, the “% Inhibition of Aflatoxin at 50 μM” value with aflatoxines production is listed as 100%. In the data set with Fusarium graminearum, the “% Inhibition of fungal growth at 50 μM” value is on record as 100%.

On to `Cn1nc(C(F)F)c(C(=O)N(CC(F)(F)c2ccccc2Cl)C2CC2)c1F` [Example 44], for which the logP in [1] stood at 3.39. In addition, the Efficacy (in the data set on Sphaerotheca fuliginea; in the data set with Alternaria solani; with Pyrenophora teres; with Venturia inaequalis; in the data set on Septoria tritici; in [2]) was 100% throughout. For the same molecule, the values for the Efficacy (in [3]; with Leptosphaeria nodorum; in the data set on Botrytis cinerea (100 ppm of active ingredient)) were 100%, 100% and 99%, respectively. Besides, the “% Inhibition of Aflatoxin at 50 μM” value with aflatoxines production is 100%. Also, the “% Inhibition of fungal growth at 50 μM” value in the data set with Fusarium graminearum is given as 100%.

Turning to `Cn1nc(C(F)F)c(C(=O)NCCc2ccc(Cl)cc2Cl)c1Cl` [Example 66], the lipophilicity (logP) in [1] stood at 3.31. The Efficacy with Venturia inaequalis is recorded as 100%; in the data set on Septoria tritici, 71%; in data set [2], 90%; in data set [3] it was 100%; in the data set on Uromyces appendiculatus it was 98%. Also, the “% Inhibition of Aflatoxin at 50 μM” value in the data set on aflatoxines production is 100%. Further, the “% Inhibition of fungal growth at 50 μM” value in the data set with Fusarium graminearum is 100%.

As to `Cn1nc(C(F)F)c(C(=O)N(C2CC2)C2CCCC2c2ccccc2Cl)c1F` (stereo not drawn) [Example 210], the logP in [1] was found to be 4.31. For the same molecule, the Efficacy (in the data set on Sphaerotheca fuliginea; with Alternaria solani; in the data set with Pyrenophora teres; in the data set on Venturia inaequalis; in the data set on Septoria tritici; in data set [2]) was 100% throughout. Further, the Efficacy in data set [3] stood at 86%; in the data set on Leptosphaeria nodorum, 90%; with Botrytis cinerea (100 ppm of active ingredient) it was 100%. In addition, in the data set with aflatoxines production, the “% Inhibition of Aflatoxin at 50 μM” value is on record as 100%. For the same molecule, the “% Inhibition of fungal growth at 50 μM” value with Fusarium graminearum is 100%.

With `Cn1nc(C(F)F)c(C(=O)NC2CC2c2ccc(Cl)cc2)c1F` (stereo not drawn) [Example 224], in data set [1], the log partition coefficient (logP) worked out at 2.61. Also, the Efficacy in the data set with Sphaerotheca fuliginea is 84%; in the data set with Alternaria solani it was 95%; with Pyrenophora teres, 100%; in the data set with Venturia inaequalis, 100%; with Leptosphaeria nodorum, 80%; in the data set on Uromyces appendiculatus, 100%. Moreover, in the data set on aflatoxines production, the “% Inhibition of Aflatoxin at 50 μM” value worked out at 100%. Also, the “% Inhibition of fungal growth at 50 μM” value in the data set with Fusarium graminearum is on record as 100%.

In data set [1], `CN(C[Si](C)(C)c1ccccc1)C(=O)c1c(C(F)F)nn(C)c1F` [Example 230] returned a logP of 3.23. The Efficacy with Alternaria solani was 100%; in the data set on Pyrenophora teres, 100%; in the data set with Septoria tritici, 100%; in data set [2], 100%; in data set [3], 83%; with Leptosphaeria nodorum it was 80%. In addition, the Efficacy in the data set with Puccinia triticina stood at 95%. In the data set with aflatoxines production, the “% Inhibition of Aflatoxin at 50 μM” value amounted to 100%. The “% Inhibition of fungal growth at 50 μM” value in the data set on Fusarium graminearum is reported as 100%.

A word on the chromatographic logP: it is a lipophilicity value derived from retention on a column. In general, inhibition refers to the share of the control response that was lost under treatment. As to `CC(Cc1ncc(C(F)(F)F)cc1Cl)NC(=O)c1c(C(F)F)nn(C)c1F` (stereo not drawn) [Example 190, N-{1-[3-chloro-5-(trifluoromethyl)pyridin-2-yl]propan-2-yl}-3-(difluoromethyl)-5-fluoro-1-methyl-1H-pyrazole-4-carboxamide], the chromatographic logP in data set [1] (logP) was 3.08. Further, the Efficacy (with Sphaerotheca fuliginea; in the data set with Alternaria solani; in the data set with Pyrenophora teres; with Venturia inaequalis; in the data set on Septoria tritici; in data set [2]) was 100% each time. For the same molecule, the Efficacy in data set [3] is listed as 88%. Moreover, the pest or weed control at 100 ppm in the data set with Botrytis cinerea (Botrytis cinerea, 48 h, 100 ppm of active ingredient, read-out: Efficacy) is 96%. Besides, the pest or weed control at 500 ppm in the data set on Botrytis cinerea (Botrytis cinerea, 48 h, 500 ppm of active ingredient, read-out: Efficacy) turned out to be 100%. The inhibition at 50 µM in the data set on aflatoxines production (Aspergillus parasiticus, 168 h, read-out: % Inhibition of Aflatoxin at 50 μM) amounted to 100%; with Fusarium graminearum (Fusarium graminearum, 168 h, read-out: % Inhibition of fungal growth at 50 μM), 100%.

In the case of `Cc1cc(Br)ccc1C(=O)C(C)(C)NC(=O)c1c(C(F)F)nn(C)c1F` [Example 133], in [1], the logP worked out at 3.37. Further, the Efficacy in the data set with Sphaerotheca fuliginea was 100%; with Alternaria solani, 95%; in the data set on Pyrenophora teres it was 100%; in the data set on Venturia inaequalis, 100%; in the data set on Septoria tritici, 80%; in data set [2], 100%. For the same molecule, the Efficacy (in [3]; in the data set on Leptosphaeria nodorum; with Botrytis cinerea (100 ppm of active ingredient)) was 100% throughout. Moreover, the “% Inhibition of Aflatoxin at 50 μM” value with aflatoxines production was found to be 100%. Also, in the data set with Fusarium graminearum, the “% Inhibition of fungal growth at 50 μM” value is given as 100%.

In data set [1], `Cn1nc(C(F)F)c(C(=O)NC(C)(C)C(=O)c2ccc3ccccc3c2)c1F` [Example 160] came in with a logP of 2.92. The Efficacy in the data set on Sphaerotheca fuliginea was found to be 95%; in the data set on Alternaria solani it was 95%; in the data set with Pyrenophora teres it was 100%; in the data set with Venturia inaequalis, 100%; in the data set with Septoria tritici it was 70%; in data set [2] it was 70%. In addition, the values for the Efficacy (in data set [3]; with Leptosphaeria nodorum; with Botrytis cinerea (100 ppm of active ingredient)) were 83%, 70% and 100%, respectively. The “% Inhibition of Aflatoxin at 50 μM” value in the data set with aflatoxines production is listed as 100%. For the same molecule, the “% Inhibition of fungal growth at 50 μM” value in the data set with Fusarium graminearum is 100%.

With `Cn1nc(C(F)F)c(C(=O)N(CC(F)(F)c2ccc(Cl)cc2Cl)C2CC2)c1F` [Example 86], in [1], the logP was found to be 3.94. In addition, the Efficacy is given as 100% in the data set on Sphaerotheca fuliginea; 100% in the data set with Alternaria solani; 100% with Pyrenophora teres; 100% in the data set on Venturia inaequalis; 80% with Septoria tritici; 100% in [2]. Further, the Efficacy in data set [3] turned out to be 93%; with Leptosphaeria nodorum, 100%; with Botrytis cinerea (100 ppm of active ingredient), 100%. Moreover, the “% Inhibition of Aflatoxin at 50 μM” value in the data set on aflatoxines production is 100%. In the data set on Fusarium graminearum, the “% Inhibition of fungal growth at 50 μM” value was determined as 98%.

For the molecule `COC(CN(C(=O)c1c(C(F)F)nn(C)c1F)C1CC1)c1ccc(Cl)cc1Cl` (stereo not drawn) [Example 80], the Efficacy with Sphaerotheca fuliginea worked out at 100%; with Alternaria solani, 95%; in the data set with Pyrenophora teres, 100%; with Venturia inaequalis, 100%; in the data set on Leptosphaeria nodorum, 100%; with Uromyces appendiculatus, 80%. The Efficacy came to 100% with Botrytis cinerea (100 ppm of active ingredient) and 80% in the data set on Puccinia triticina. Besides, in the data set with aflatoxines production, the “% Inhibition of Aflatoxin at 50 μM” value was determined as 100%. In the data set with Fusarium graminearum, the “% Inhibition of fungal growth at 50 μM” value came out at 100%.
